# Reference: PubChem BioAssay AID330 (DTP/NCI, 2004)
# Values joined by “and” are separate entries in the source; they are usually repeats but may differ in a detail not shown here. Equal entries are not always repeated. Toxic doses and inconclusive results are not listed.
# System: P388 leukemia ip, CD2F1 mice, survival T/C
# Test: NCI In Vivo Anticancer Drug Screen. Data for tumor model P388 Leukemia (intraperitoneal) in CD2F1 (CDF1) mice
# Conditions: endpoint: median survival time, higher = longer survival
# Method: The antitumor activity of compounds was measured in mice bearing transplantable tumors. Survival or tumor size were measured and the results are expressed as the measurement made in the treated group (T) divided by the measurement made in the vehicle treated control group (C). The tumor model used in this assay is P388 Leukemia (intraperitoneal) in CD2F1 (CDF1) mice
# [1] = dose: 50.0 mg/kg/injection, schedule: Q01DX009 (ip), vehicle: Klucel (hydroxypropylcellulose) (HPC)
# [2] = dose: 100.0 mg/kg/injection, schedule: Q01DX009 (ip), vehicle: Klucel (hydroxypropylcellulose) (HPC)
# [3] = dose: 50.0 mg/kg/injection, schedule: Q01DX005 (ip), vehicle: Klucel (hydroxypropylcellulose) (HPC)
# [4] = dose: 100.0 mg/kg/injection, schedule: Q01DX005 (ip), vehicle: Klucel (hydroxypropylcellulose) (HPC)
# [5] = dose: 200.0 mg/kg/injection, schedule: Q01DX005 (ip), vehicle: Klucel (hydroxypropylcellulose) (HPC)
# [6] = dose: 25.0 mg/kg/injection, schedule: Q01DX009 (ip), vehicle: saline with Tween-80
# [7] = dose: 100.0 mg/kg/injection, schedule: Q01DX009 (ip), vehicle: saline with Tween-80
# [8] = dose: 200.0 mg/kg/injection, schedule: Q01DX009 (ip), vehicle: saline with Tween-80
# [9] = dose: 100.0 mg/kg/injection, schedule: Q01DX001 (ip), vehicle: Klucel (hydroxypropylcellulose) (HPC)
# [10] = dose: 200.0 mg/kg/injection, schedule: Q01DX001 (ip), vehicle: Klucel (hydroxypropylcellulose) (HPC)
# [11] = dose: 400.0 mg/kg/injection, schedule: Q01DX001 (ip), vehicle: Klucel (hydroxypropylcellulose) (HPC)
# [12] = dose: 60.0 mg/kg/injection, schedule: Q01DX005 (ip), vehicle: saline with Tween-80
# [13] = dose: 120.0 mg/kg/injection, schedule: Q01DX005 (ip), vehicle: saline with Tween-80
# [14] = dose: 240.0 mg/kg/injection, schedule: Q01DX005 (ip), vehicle: saline with Tween-80
# [15] = dose: 50.0 mg/kg/injection, schedule: Q01DX005 (ip), vehicle: saline with Tween-80
# [16] = dose: 100.0 mg/kg/injection, schedule: Q01DX005 (ip), vehicle: saline with Tween-80
# [17] = dose: 50.0 mg/kg/injection, schedule: Q01DX005 (ip), vehicle: saline
# [18] = dose: 100.0 mg/kg/injection, schedule: Q01DX005 (ip), vehicle: saline
# [19] = dose: 200.0 mg/kg/injection, schedule: Q01DX005 (ip), vehicle: saline
# [20] = dose: 100.0 mg/kg/injection, schedule: Q04DX003 (ip), vehicle: saline
# [21] = dose: 200.0 mg/kg/injection, schedule: Q04DX003 (ip), vehicle: saline
# [22] = dose: 400.0 mg/kg/injection, schedule: Q04DX003 (ip), vehicle: saline
# [23] = dose: 50.0 mg/kg/injection, schedule: Q01DX009 (ip), vehicle: saline
# [24] = dose: 100.0 mg/kg/injection, schedule: Q01DX009 (ip), vehicle: saline
# [25] = dose: 50.0 mg/kg/injection, schedule: Q01DX009 (ip), vehicle: saline with Tween-80
compound,measurement,setting,value
Cc1c2cc[n+](C[n+]3ccc4c(C)c5[nH]c6ccccc6c5c(C)c4c3)cc2c(C)c2c1[nH]c1ccccc12,T/C,"dose: 12.5 mg/kg/injection, schedule: Q04DX002 (ip), vehicle: DMSO",107 % of control
same,T/C,"dose: 25.0 mg/kg/injection, schedule: Q04DX002 (ip), vehicle: DMSO",111 % of control
same,T/C,"dose: 50.0 mg/kg/injection, schedule: Q04DX002 (ip), vehicle: DMSO",115 % of control
same,T/C,"dose: 100.0 mg/kg/injection, schedule: Q04DX002 (ip), vehicle: DMSO",121 % of control
CC(=O)Oc1cc(C)cc2ccc(-c3ccc4cc(C)cc(OC(C)=O)c4c3OC(C)=O)c(OC(C)=O)c12,T/C,[1],96 % of control
same,T/C,[2],96 % of control
same,T/C,"dose: 200.0 mg/kg/injection, schedule: Q01DX009 (ip), vehicle: Klucel (hydroxypropylcellulose) (HPC)",96 % of control
COC(=O)CC[C@@H]1C(C)=CC(=O)[C@@]2(F)[C@H]1CCC1=CC(=O)C=C[C@@]12C,T/C,[3],108 % of control
same,T/C,[4],100 % of control
same,T/C,[5],109 % of control
N#CCCCOCCOCCOCC(O)C(O)COCCOCCOCCCC#N (stereo not given),T/C,"dose: 25.0 mg/kg/injection, schedule: Q01DX005 (ip), vehicle: suspension in saline",95 % of control
same,T/C,"dose: 50.0 mg/kg/injection, schedule: Q01DX005 (ip), vehicle: suspension in saline",99 % of control
same,T/C,"dose: 100.0 mg/kg/injection, schedule: Q01DX005 (ip), vehicle: suspension in saline",96 % of control
same,T/C,"dose: 200.0 mg/kg/injection, schedule: Q01DX005 (ip), vehicle: suspension in saline",98 % of control
CCCCOP(=O)(O)OCCCC.[V],T/C,"dose: 6.25 mg/kg/injection, schedule: Q01DX009 (ip), vehicle: saline with Tween-80",99 % of control
same,T/C,"dose: 12.5 mg/kg/injection, schedule: Q01DX009 (ip), vehicle: saline with Tween-80",96 % of control
same,T/C,[6],97 % of control
same,T/C,[7],104 % of control
same,T/C,[8],103 % of control
C/C(=N\N=C/N(C)S(C)(=O)=O)c1ccccc1,T/C,[3],104 % of control
same,T/C,[4],104 % of control
same,T/C,[5],99 % of control
CC(=O)Oc1c2c(c(OC(C)=O)c3ccccc13)C(=O)C(O)C(C)O2 (stereo not given),T/C,[9],102 % of control
same,T/C,[10],96 % of control
same,T/C,[11],100 % of control
COC(=O)c1cc(-c2ccc(O)c(OC)c2)n2c(NC(=O)Nc3ccc(Cl)cc3)nnc2n1,T/C,[12],91 % of control
same,T/C,[13],91 % of control
same,T/C,[14],91 % of control
COc1ccc(S(=O)(=O)N/N=C/c2ncc[nH]2)cc1,T/C,"dose: 25.0 mg/kg/injection, schedule: Q01DX005 (ip), vehicle: saline with Tween-80",99 % of control
same,T/C,[15],99 % of control
same,T/C,[16],100 % of control
O=NN(CC(=O)O)CC1(O)OCC(O)C(O)C1O (stereo not given),T/C,[17],94 % of control
same,T/C,[18],105 % of control
same,T/C,[19],103 % of control
O=C(CN1CCCCC1)c1c(-c2ccccc2)[nH]c2ccccc12,T/C,[20],108 % of control
same,T/C,[21],99 % of control
same,T/C,[22],93 % of control
COc1cccc(C(c2cc3c(cc2O)OCO3)N2CCOCC2)c1OC (stereo not given),T/C,[12],119 % of control
same,T/C,[13],119 % of control
same,T/C,[14],117 % of control
O=C(CC(=O)c1ccccc1)Nc1ccc(-c2nc3ccccc3c(=O)[nH]2)cc1,T/C,"dose: 50.0 mg/kg/injection, schedule: Q01DX009 (ip), vehicle: saline + alcohol",97 % of control
same,T/C,"dose: 100.0 mg/kg/injection, schedule: Q01DX009 (ip), vehicle: saline + alcohol",92 % of control
same,T/C,"dose: 200.0 mg/kg/injection, schedule: Q01DX009 (ip), vehicle: saline + alcohol",94 % of control
O=C(Cc1cccc2c(=O)cc(-c3ccccc3)oc12)OCCN1CCOCC1,T/C,[23],99 % of control
same,T/C,[24],100 % of control
COc1ccc(C)cc1C(=C=C=C=C(c1cc(C)ccc1OC)c1ccccc1OCc1ccccc1)c1ccccc1OCc1ccccc1,T/C,"dose: 25.0 mg/kg/injection, schedule: Q01DX009 (ip), vehicle: Klucel (hydroxypropylcellulose) (HPC)",101 % of control
same,T/C,[1],100 % of control
same,T/C,[2],93 % of control
CN(C)C1C(=O)C(C(=O)NCNC(C=O)C(O)C(O)C(O)CO)=C(O)C2(O)C(=O)C3=C(O)c4c(O)cccc4C(C)(O)C3CC12 (stereo not given),T/C,[17],100 % of control
same,T/C,[18],99 % of control
same,T/C,[19],96 % of control
CC(=O)Oc1ccc(/C=N/NC(N)=S)nc1,T/C,"dose: 4.0 mg/kg/injection, schedule: Q01DX009 (ip), vehicle: saline with Tween-80",154 % of control
same,T/C,"dose: 14.6 mg/kg/injection, schedule: Q01DX009 (ip), vehicle: saline with Tween-80",163 % of control
same,T/C,"dose: 22.0 mg/kg/injection, schedule: Q01DX009 (ip), vehicle: saline with Tween-80",177 % of control
same,T/C,"dose: 33.0 mg/kg/injection, schedule: Q01DX009 (ip), vehicle: saline with Tween-80",181 % of control
same,T/C,"dose: 37.5 mg/kg/injection, schedule: Q01DX009 (ip), vehicle: saline with Tween-80",170 % of control
same,T/C,[25],204 % of control
same,T/C,"dose: 75.0 mg/kg/injection, schedule: Q01DX009 (ip), vehicle: saline with Tween-80",173 % of control
same,T/C,"dose: 150.0 mg/kg/injection, schedule: Q01DX009 (ip), vehicle: saline with Tween-80",88 % of control
COC(=O)c1cccc2c1Oc1ccccc1S2,T/C,"dose: 25.0 mg/kg/injection, schedule: Q01DX005 (ip), vehicle: Klucel (hydroxypropylcellulose) (HPC)",102 % of control
same,T/C,[3],103 % of control
same,T/C,[4],102 % of control
same,T/C,[5],100 % of control
CC1CC(C)NC(C)C1 (stereo not given),T/C,"dose: 12.5 mg/kg/injection, schedule: Q01DX009 (ip), vehicle: saline",86 % of control
same,T/C,"dose: 25.0 mg/kg/injection, schedule: Q01DX009 (ip), vehicle: saline",103 % of control
same,T/C,[23],97 % of control
same,T/C,[24],93 % of control
COC(=O)N1[C@@H]2C=CC=CC=C2[C@@H](OC)N1C(=O)OC,T/C,[15],101 % of control
same,T/C,[16],103 % of control
same,T/C,"dose: 200.0 mg/kg/injection, schedule: Q01DX005 (ip), vehicle: saline with Tween-80",103 % of control
Cc1cc(=O)oc2c(C)c3oc4c(c3cc12)CN(C)CC4,T/C,[3],100 % of control
same,T/C,[4],117 % of control
COc1ccc2c(c1O)-c1c(OC)c(O)cc3c1C(C2)NCC3 (stereo not given),T/C,"dose: 32.0 mg/kg/injection, schedule: Q01DX009 (ip), vehicle: Klucel (hydroxypropylcellulose) (HPC)",96 % of control
same,T/C,"dose: 64.0 mg/kg/injection, schedule: Q01DX009 (ip), vehicle: Klucel (hydroxypropylcellulose) (HPC)",93 % of control
same,T/C,"dose: 128.0 mg/kg/injection, schedule: Q01DX009 (ip), vehicle: Klucel (hydroxypropylcellulose) (HPC)",100 % of control
same,T/C,"dose: 256.0 mg/kg/injection, schedule: Q01DX009 (ip), vehicle: Klucel (hydroxypropylcellulose) (HPC)",102 % of control
Cc1ccc(S(=O)(=O)Nc2cc(C)cc(CCNC=O)c2C)cc1,T/C,[25],104 % of control
same,T/C,[7],94 % of control
same,T/C,[8],99 % of control
same,T/C,"dose: 400.0 mg/kg/injection, schedule: Q01DX009 (ip), vehicle: saline with Tween-80",94 % of control
O=C(O)c1cc(=O)c2cc3c(=O)cc(C(=O)O)[nH]c3c(Cl)c2[nH]1,T/C,[6],96 % of control
same,T/C,[25],96 % of control
same,T/C,[7],100 % of control
Cc1ncc([N+](=O)[O-])n1CCN=[N+]=[N-],T/C,"dose: 50.0 mg/kg/injection, schedule: Q04DX003 (ip), vehicle: saline",99 % of control and 100 % of control
same,T/C,[20],101 % of control and 107 % of control
same,T/C,[21],100 % of control and 112 % of control
same,T/C,[22],100 % of control and 107 % of control
O=C1OC(c2ccccc2)=N/C1=C/c1c(Cl)n(-c2ccccc2)c2ccccc12,T/C,[9],96 % of control
same,T/C,[10],94 % of control
same,T/C,[11],93 % of control
